“Also recorded” adds a separate entry of the source.
How the values were obtained:
rats (Rattus norvegicus) = experiment: Rodenticidal effect in rats fed treated diet (Table I); format: in vivo, Spraque-Dawley albino strain, male; settings: per rat
From the text: A quantity of a standard animal feed of the following composition: Ingredients Percent Lbs./Ton ______________________________________ Corn, Yellow, Ground 42.275 845.5 Oats, Ground 10.0 200.0 Wheat Middlings 10.0 200.0 Soybean Oil Meal, Solvent Extracted Dehulled, 50 % 18.0 360.0 Skimmed Milk, Dried 5.0 100.0 Corn, Distillers Dried Solubles 2.5 50.0 Alfalfa Meal, Dehydrated, 17 % 2.5 50.0 Whey, Whole Dried 1.0 20.0 Fish Meal with Solubles 4.0 80.0 Animal Fat, Beef Tallow 2.0 40.0 Dicalcium Phosphate, Feed Grade 0.5 10.0 Calcium Carbonate 1.0 20.0 Salt 0.3 6.0 Trace Mineral Premix AN-03 0.2 4.0 Vitamin Premix CK-1 0.5 10.0 Vitamin E Premix 0.1 2.0 Methionine Hydroxy Analog (HYDAN) 0.125 2.5 Total 100.00 2000.0 ______________________________________
was divided into two portions. To each portion, there was added an amount of 1-methoxy-6-chloro-2-heptafluoro-n-propyl-1H-imidazo(4,5-b)pyridine, so that one portion contained 800 ppm of the compound, and the other portion contained 200 ppm of the compound.
Other modified feeds were prepared as described above but containing, in lieu of the compound identified above, 1-methoxy-6-bromo-2-heptafluoro-n-propyl-1H-imidazo(4,5-b)pyridine, 6-chloro-2-pentafluoroethyl-1H-imidazo(4,5-)pyridine, or 1-methoxy-6-chloro-2-heptafluoroisopropyl-1H-imidazo(4,5-b)pyridine, in the same or other concentrations,
EXAMPLES 2-28 Representative compounds were evaluated for rodenticidal effect in rats (Rattus norvegicus, Spraque-Dawley albino strain, male, each weighing 50-60 grams). Each compound to be evaluated was formulated as described in Example 1. Control rats were maintained on the standard animal feed described in Example 1. Control rats and rats to be treated were randomly assigned. Each group contained 5 or 6 rats. Feeding of the respective diet was ad libitum. Consumption per rat per day was checked, except on weekend days, and the rats were weighed and usually necropsied at death or termination of the experiment (generally, day 10).
In the evaluation of several of the compounds, the rats were observed closely to determine the day of death. Death occurred on the day marked by "X"; where no "X" is marked, the rat was found dead on the morning following the last indicated feeding. For the remaining compounds, no such close observation was made, and the rat was found dead on the morning following the last indicated feeding. Generally, the rats were not observed or feed consumption determined on weekend days.

[1] = test system: whole blood clotting time; experiment: Prolongation of whole blood clotting time in female rats (Table II); format: in vivo, Rattus norvegicus, Sprague-Dawley strain; settings: 0.06 % in diet
Procedure: 1-Hydroxy-6-chloro-2-pentafluoroethyl-1H-imidazo(4,5-b)-pyridine was evaluated for prolongation of clotting time. The experiment was conducted in female rats (Rattus norvegicus, Sprague-Dawley strain) using a standard laboratory diet. A group of four control rats was fed the unmodified diet and another group of four rats was fed a treated diet, the standard laboratory diet modified by the incorporation therein of 0.06 percent of the 1-hydroxy-6-chloro-2-pentafluoroethyl-1H-imidazo(4,5-b)pyridine.
On the sixth day of feeding, a blood sample was taken from each rat and was analyzed for whole blood clotting time. The analysis was carried out on a BBL Fibrometer Precision Coagulation Timer, produced by BBL Fibrometer, a Division of Becton, Dickinson and Co., Canada, Ltd.; at Mississauga, Ontario. Two analyses were made of each sample.

prothrombin time = experiment: Prothrombin time in male rats (Tables III and IV); format: in vivo, rats (Harlan albino strain); settings: group of 5 rats; for Deaths / Range of Prothrombin Time: five days
Procedure: Representative compounds were evaluated for prothrombin time in standard laboratory male rats (Harlan albino strain) of weanling age. A standard laboratory animal diet was fed to one group of 5 rats to serve as a control; other groups of 5 rats received modified diets, each diet being the standard laboratory animal diet modified by the incorporation therein of 0.08 percent of the respective compound. Feeding was continued for five days, at which time a blood sample was taken from each rat and analyzed for prothrombin time. The analytical method was that of A. J. Quick, "The Determination of Prothrombin," 190 Am. J. Med. Sci. 501 (1935): and it was performed on the "Electra 600", a machine available from the Medical Laboratory Automation, Inc. The results are reported in Table III.
Additional evaluations of the effect of representative compounds of prothrombin time were conducted. The procedures were the same as those reported in Examples 30-33 except that the concentration of the respective compound was 0.02 percent.

[2] = test system: rat population (Rattus norwegius); experiment: Field trial against a rat population; format: in vivo; settings: 100 ppm in feed
Procedure: A field trial was conducted to evaluate the efficacy of 1-methoxy-5,6-dichloro-2-heptafluoro-n-propyl-1H-imidazo(4,5-b)-pyridine. The trial was conducted in an area of waste ground covered by grass and brush and recently cut off, by construction activity, from a nearby abandoned stockyard. The trial area indicated the presence of a rat population; this was confirmed by supplying to the area a conventional pelleted hog feed. It was consumed steadily at the rate of 8 lbs./day, corresponding to a population of about 145 rats consuming an average of 25 g. of feed/day. After the conventional feed had been supplied for three weeks, the trial period began. The rat species was believed to be Rattus norwegius, and this was later confirmed upon recovery of the dead animals.
During the trial period, the conventional feed was replaced by an adequate supply of a modified feed, which was identical to the conventional feed except that it contained 100 ppm (0.01 percent) of 1-methoxy-5,6-dichloro-2-heptafluoro-n-propyl-1H-imidazo(4,5-b)pyridine.
Food consumption was estimated visually and was as follows, counting the initiation of the trial period as the first day: […]

FC(F)(F)c1nc2nc(Cl)c(Cl)cc2[nH]1 [5,6-dichloro-2-trifluoromethyl-1H-imidazo(4,5-b)pyridine]
Weight change (rats (Rattus norvegicus); 50 ppm in diet): +13 grams

COn1c(C(F)(C(F)(F)F)C(F)(F)F)nc2ncc(Cl)cc21 [1-methoxy-6-chloro-2-heptafluoroisopropyl-1H-imidazo(4,5-b)pyridine]
Necropsy results (rats (Rattus norvegicus); 200 ppm in diet): TH, SH
Necropsy results (rats (Rattus norvegicus); 300 ppm in diet): AH, TH, SH; also recorded: TH, Test.H

CC(C)On1c(C(F)(F)F)nc2nc(Cl)c(Cl)cc21 [1-isopropoxy-5,6-dichloro-2-trifluoromethyl-1H-imidazo(4,5-b)pyridine]
Weight change (rats (Rattus norvegicus); 200 ppm in diet): 0 grams

O=C(C=Cc1ccccc1)On1c(C(F)(F)F)nc2ncc(Cl)cc21 [1-cinnamoyloxy-6-chloro-2-trifluoromethyl-1H-imidazo(4,5-b)pyridine]
Necropsy results (rats (Rattus norvegicus); 1000 ppm in diet): SH, IH

On1c(C(F)(F)C(F)(F)F)nc2ncc(Cl)cc21 [1-hydroxy-6-chloro-2-pentafluoroethyl-1H-imidazo(4,5-b)pyridine]
Death during clotting time study ([1]; per animal): died on day 5; also recorded: died on day 6
Whole Blood Clotting Time ([1]; sixth day of feeding, two analyses per sample): > 600 s

COn1c(C(F)(F)F)nc2nc(Cl)c(Cl)cc21 [1-methoxy-5,6-dichloro-2-trifluoromethyl-1H-imidazo(4,5-b)pyridine]
Weight change (rats (Rattus norvegicus); 200 ppm in diet): -12 grams

C=CCOn1c(C(F)(F)C(F)F)nc2nc(Cl)c(Cl)cc21 [1-allyloxy-5,6-dichloro-2-(1,1,2,2-tetrafluoroethyl)-1H-imidazo(4,5-b)pyridine]
Weight change (rats (Rattus norvegicus); 100 ppm in diet): 0 grams

FC(F)(F)c1nc2ncc(Cl)cc2[nH]1 [6-chloro-2-trifluoromethyl-1H-imidazo(4,5-b)pyridine]
Deaths (prothrombin time; 0.02 percent in diet): none
Deaths (prothrombin time; 0.08 percent in diet): 5
Day(s) of deaths (prothrombin time; 0.08 percent in diet): three

FC(F)C(F)(F)c1nc2ncc(Cl)cc2[nH]1 [6-chloro-2-(1,1,2,2-tetrafluoroethyl)-1H-imidazo(4,5-b)pyridine]
Necropsy results (rats (Rattus norvegicus); 150 ppm in diet): TH, SIH; also recorded: NH, IH

CNC(=O)On1c(C(F)(F)F)nc2ncc(Cl)cc21 [1-methylcarbamoyloxy-6-chloro-2-trifluoromethyl-1H-imidazo(4,5-b)pyridine]
Deaths (prothrombin time; 0.02 percent in diet): none
Range of Prothrombin Time (prothrombin time; 0.02 percent in diet): 17.6 to 22.1 s
Deaths (prothrombin time; 0.08 percent in diet): none
Range of Prothrombin Time (prothrombin time; 0.08 percent in diet): 39.6 to 98.6 s

COCOn1c(C(F)(F)F)nc2ncc(Cl)cc21 [1-(methoxymethoxy)-6-chloro-2-trifluoromethyl-1H-imidazo(4,5-b)pyridine]
Weight change (rats (Rattus norvegicus); 700 ppm in diet): +13 grams

CC(C)(C)C(=O)On1c(C(F)(F)F)nc2ncc(Cl)cc21 [1-pivaloyloxy-6-chloro-2-trifluoromethyl-1H-imidazo(4,5-b)pyridine]
Necropsy results (rats (Rattus norvegicus); 750 ppm in diet): TH, IH; also recorded: NH, IH
Necropsy results (rats (Rattus norvegicus); 1500 ppm in diet): NH, IH

COn1c(C(F)(F)F)nc2nc(Cl)ccc21 [1-methoxy-5-chloro-2-trifluoromethyl-1H-imidazo(4,5-b)pyridine]
Weight change (rats (Rattus norvegicus); 800 ppm in diet): -11 grams

COn1c(C(F)(F)C(F)(F)C(F)(F)F)nc2nc(Cl)c(Cl)cc21 [1-methoxy-5,6-dichloro-2-heptafluoro-n-propyl-1H-imidazo(4,5-b)pyridine]
Bait shyness [2]: no bait shyness
Eradication of rodents from the trial area [2]: essentially complete eradication of rodents from the trial area
First day rat corpses were found [2]: 4 days
Necropsy of corpses ([2]; 31 of 40 corpses necropsied): uniformly showed internal hemorrhage, generally of the intestines
Corpses found ([2]; total): 40 corpses

COn1c(C(F)(F)C(F)(F)F)nc2ncc(Cl)cc21 [1-methoxy-6-chloro-2-pentafluoroethyl-1H-imidazo(4,5-b)pyridine]
Deaths (prothrombin time; 0.02 percent in diet): none
Range of Prothrombin Time (prothrombin time; 0.02 percent in diet): 53.1 to 90.5 s
Deaths (prothrombin time; 0.08 percent in diet): 3
Range of Prothrombin Time (prothrombin time; 0.08 percent in diet): 180 to 200 s
Day(s) of deaths (prothrombin time; 0.08 percent in diet): 170000 to 350000 s

COn1c(C(F)(F)C(F)(F)C(F)(F)F)nc2ncc(Cl)cc21 [1-methoxy-6-chloro-2-heptafluoro-n-propyl-1H-imidazo(4,5-b)pyridine]
Necropsy results (in words) (rats (Rattus norvegicus); 200 ppm in diet): bloody nose
Necropsy results (in words) (rats (Rattus norvegicus); 800 ppm in diet): bloody nose

COn1c(C(F)(F)C(F)(F)C(F)(F)F)nc2ncc(Br)cc21 [1-methoxy-6-bromo-2-heptafluoro-n-propyl-1H-imidazo(4,5-b)pyridine]
Necropsy results (rats (Rattus norvegicus); 200 ppm in diet): LH, IH
